# Data taken from patent US6491894B1, “NGR receptor and methods of identifying tumor homing molecules that home to angiogenic vasculature using same” (The Burnham Institute, priority 1998, dated 2002).
# Where no end group is shown, it is not given here.
# Experiments:
# [1] = high doses; cited from earlier work
# CD13 [2] = target: T1, CD13 (Gallus gallus, UniProt O57579); assay: bFGF-induced angiogenesis in chicken chorioallantoic membrane (CAM); type: in vivo; details: topical, 3 days
# T1 construct: CD13 is expressed in CAM angiogenic vasculature; from tissue; host or cells: chorioallantoic membrane of 10-day chicken embryos
# T1 sequence (O57579 1-972): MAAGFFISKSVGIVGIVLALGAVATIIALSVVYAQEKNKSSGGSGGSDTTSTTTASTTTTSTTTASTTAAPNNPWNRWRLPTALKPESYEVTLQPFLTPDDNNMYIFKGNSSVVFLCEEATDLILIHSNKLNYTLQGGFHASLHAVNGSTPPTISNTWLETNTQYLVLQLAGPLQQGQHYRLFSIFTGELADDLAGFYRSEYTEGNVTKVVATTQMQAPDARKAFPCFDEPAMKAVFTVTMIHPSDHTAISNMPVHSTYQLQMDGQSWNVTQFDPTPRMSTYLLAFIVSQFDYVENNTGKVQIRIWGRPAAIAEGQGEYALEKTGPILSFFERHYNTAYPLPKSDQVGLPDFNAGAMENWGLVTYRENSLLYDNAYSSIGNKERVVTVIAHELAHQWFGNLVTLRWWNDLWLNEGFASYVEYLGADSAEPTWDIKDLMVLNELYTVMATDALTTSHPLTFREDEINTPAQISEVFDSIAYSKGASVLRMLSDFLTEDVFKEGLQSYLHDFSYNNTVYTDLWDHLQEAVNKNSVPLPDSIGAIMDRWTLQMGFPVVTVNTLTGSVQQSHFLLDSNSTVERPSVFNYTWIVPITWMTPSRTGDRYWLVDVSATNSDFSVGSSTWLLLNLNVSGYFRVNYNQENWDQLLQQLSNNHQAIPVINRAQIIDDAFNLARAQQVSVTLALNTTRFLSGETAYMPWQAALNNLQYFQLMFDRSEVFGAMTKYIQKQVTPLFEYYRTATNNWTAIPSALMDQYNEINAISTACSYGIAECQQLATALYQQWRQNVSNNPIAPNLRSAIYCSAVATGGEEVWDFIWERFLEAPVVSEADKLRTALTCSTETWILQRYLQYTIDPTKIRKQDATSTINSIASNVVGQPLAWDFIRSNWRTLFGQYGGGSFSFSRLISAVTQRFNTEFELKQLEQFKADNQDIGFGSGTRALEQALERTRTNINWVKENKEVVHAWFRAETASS
# From the text: Various treatments were applied topically, and, after 3 days, the filters and surrounding CAMs were resected and fixed in formalin.
# Each bar represents the mean number of vessels and standard errors from 8 CAMs on each group.
# CD13/aminopeptidase N = CD13/aminopeptidase N (Homo sapiens, UniProt P15144); details: cited from earlier work
# [3] = Acute toxicity in mice bearing extremely large tumors; details: mouse, in vivo
# Hodgkin's lymphoma = assay: Treatment of mice bearing Hodgkin's lymphoma; type: in vivo; details: two doses, 40 μg/mouse doxorubicin equivalent, tumors ~5000 mm^3
# Procedure: Mice bearing large (˜5000 mm^3) Hodgkin's lymphoma (eight animals per group) were randomized to receive two doses of free doxorubicin plus unconjugated CNGRC peptide or doxorubicin-CNGRC (SEQ ID NO:8) conjugate at 40 μg/mouse of doxorubicin equivalent.
# [4] = tested on: MDA-MB-435 breast carcinoma; assay: Tumor therapy of mice bearing MDA-MB-435 breast carcinoma; type: in vivo, mouse
# Procedure: Female 2-month old Balb c nu/nu mice (Harlan Sprague Dawley; San Diego Calif.) were used for these studies and were cared for according to the Burnham Institute animal facility guidelines. […] Tumors were allowed to grow to a size of about 1 cm^3 (about 5% of the mouse's body weight) before starting the treatment experiments, except for the toxicity experiments as discussed below.
# Weekly doxorubicin/peptide conjugate or control treatments (5 μg/mouse/week of doxorubicin-equivalent) were administered intravenously. In some experiments, as indicated, a dose of 30 μg/mouse was administered every 3 weeks. […] As an additional control, in some experiments the tumor homing peptide was mixed with doxorubicin, without linking, and the mixture was administered to tumor bearing mice.
# Mice were anesthetized with a tribromoethanol-based anesthetic mixture (AVERTIN; Papaioannou and Fox, Lab. Anim. 43:189-192 (1993)) before each treatment. Anesthetization facilitated the tail vein injections (final volume, 200 μl) and allowed precise serial three dimensional tumor size measurements. Tumor volume calculations were based on the equation for the volume of an ovaloid: V=4/3(nabc), where a, b, and c are ½ of the measured diameters in each of the three dimensions.
# Briefly, mice with size-matched tumors (˜1000 mm^3) were randomized into four treatment groups (six animals per group): vehicle only, free doxorubicin, doxorubicin-control peptide, and doxorubicin-CNGRC (SEQ ID NO:8). Mice were treated at 5 μg/mouse/week of doxorubicin-equivalent, and the difference in tumor volumes between day 1 and day 28 determined (FIG. 11A).
# [5] = tested on: MDA-MB-435 derived tumors; assay: In vivo targeting of phage to breast carcinoma xenografts (phage recovery); design: species or system mouse
# Procedure: When the tumors attained a diameter of about 1 cm, phage expressing a specific RGD-containing peptide were administered to the tumor bearing mouse. Similar results to those discussed below also were obtained with nude mice bearing tumors formed by implantation of human melanoma C8161 cells or by implantation of mouse B16 melanoma cells.
# 1×10^9 phage expressing the RGD-containing peptide, RGD-4C ([…]; SEQ ID NO:1; see, Koivunen et al., supra, 1995) or control (insertless) phage were injected intravenously (iv) into the mice and allowed to circulate for 4 min. The mice then were snap frozen or perfused through the heart while under anesthesia, and various organs, including tumor, brain and kidney, were removed and the phage present in the organs was quantitated (see U.S. Pat. No. 5,622,699; Pasqualini and Ruoslahti, supra, 1996).
# Phage displaying tumor homing peptides were recovered from breast carcinoma xenografts. […] The mean number of phage recovered from the tumor or control tissue (brain) and the standard error of the mean (SEM) from triplicate platings are shown in FIG. 1.
# An insertless phage with a different selective marker (ampicillin instead of tetracycline) was co-injected with the NGR phage at the same input to assess specificity within the same tumor-bearing animal. The ratios were calculated using the number of co-injected control ampicillin-resistant phage recovered from the same tissues. The phage were quantitated from triplicate platings on tetracycline (the homing phage) or ampicillin (control phage) selective plates. Various additional control phage were injected separately into tumor-bearing mice. These controls included: fd-tet phage without insert; unselected phage library mixtures; phage selected and shown to home to other normal vascular beds; and phage displaying peptides that were unrelated to NGR. The RGD-4C ([…]; SEQ ID NO:1) phage served as a positive control.
# CD13/APN = target: T2, CD13/APN (Homo sapiens, UniProt P15144); assay: Affinity chromatography of cell extracts on immobilized peptide; type: binding; details: Molt-4/CD13, MDA-MB-435/CD13 or HL-60 cell extracts
# T2 construct: Experiments were performed using HL-60 cell extracts because they are known to express CD13/APN; endogenous in cells; host or cells: HL-60 cells (extract)
# Procedure: To further characterize the interaction of CD13/APN with the NGR peptide, affinity chromatography on the CNGRC peptide was performed. The column was prepared by coupling the CNGRC peptide to SEPHAROSE (Pharmacia; Piscataway N.J.). Elution was effected with soluble CNGRC peptide. […] Extracts of Molt-4 and MDA-MB-435 cells transfected with CD13/APN were also characterized by using affinity chromatography, with extracts of the mock transfected counterparts used as negative controls.
# The fractions were also analyzed for CD13 enzymatic activity using AlapNA as the substrate.
# CD13 [6] = target: T3, CD13 (Homo sapiens, UniProt P15144); assay: Phage binding assays with CD13/APN-transfected cells; type: cell-based; design: expressed in transfected cells; host or cells: Molt-4 human T cell leukemia; details: 250 and 500 μg/ml
# Procedure: The CNGRC phage binds specifically to cells transfected with CD13. […] Briefly, mock transfected Molt-4 cells (“Molt-4/mock”) and cells transfected with CD13 (“Molt-4/CD13”) were incubated with CNGRC (SEQ ID NO:8) phage or with control Fd phage lacking an insert (2×10^9 transducing units (TU) per sample). Synthetic peptides, CNGRC (SEQ ID NO:8) or the negative control CARAC (SEQ ID NO:221), were pre-incubated with the cells at 250 and 500 μg/ml. After extensive washing, bound phage were quantitated by infection of bacteria as described above.
# CD13 [7] = target: T3, CD13; assay: Phage binding to immobilized CD13; design: Kaposi's sarcoma tumor cell octylglucoside extracts were used as a source of CD13/APN; endogenous in cells; host or cells: Kaposi's sarcoma tumor cells (octylglucoside extract); details: 200 μg/well
# Procedure: In FIG. 4B, NGR-containing phage were assayed for the ability to bind CD13. […] Various phage were added to the wells at 2×10^9 transducing units (TU) per well. […] The data were expressed as means and standard errors from triplicate wells.
# The data shown were expressed as means and standard errors from triplicate wells.
# [8] = 5 μg/mouse/week doxorubicin-equivalent iv
# T3 sequence (P15144 whole entry): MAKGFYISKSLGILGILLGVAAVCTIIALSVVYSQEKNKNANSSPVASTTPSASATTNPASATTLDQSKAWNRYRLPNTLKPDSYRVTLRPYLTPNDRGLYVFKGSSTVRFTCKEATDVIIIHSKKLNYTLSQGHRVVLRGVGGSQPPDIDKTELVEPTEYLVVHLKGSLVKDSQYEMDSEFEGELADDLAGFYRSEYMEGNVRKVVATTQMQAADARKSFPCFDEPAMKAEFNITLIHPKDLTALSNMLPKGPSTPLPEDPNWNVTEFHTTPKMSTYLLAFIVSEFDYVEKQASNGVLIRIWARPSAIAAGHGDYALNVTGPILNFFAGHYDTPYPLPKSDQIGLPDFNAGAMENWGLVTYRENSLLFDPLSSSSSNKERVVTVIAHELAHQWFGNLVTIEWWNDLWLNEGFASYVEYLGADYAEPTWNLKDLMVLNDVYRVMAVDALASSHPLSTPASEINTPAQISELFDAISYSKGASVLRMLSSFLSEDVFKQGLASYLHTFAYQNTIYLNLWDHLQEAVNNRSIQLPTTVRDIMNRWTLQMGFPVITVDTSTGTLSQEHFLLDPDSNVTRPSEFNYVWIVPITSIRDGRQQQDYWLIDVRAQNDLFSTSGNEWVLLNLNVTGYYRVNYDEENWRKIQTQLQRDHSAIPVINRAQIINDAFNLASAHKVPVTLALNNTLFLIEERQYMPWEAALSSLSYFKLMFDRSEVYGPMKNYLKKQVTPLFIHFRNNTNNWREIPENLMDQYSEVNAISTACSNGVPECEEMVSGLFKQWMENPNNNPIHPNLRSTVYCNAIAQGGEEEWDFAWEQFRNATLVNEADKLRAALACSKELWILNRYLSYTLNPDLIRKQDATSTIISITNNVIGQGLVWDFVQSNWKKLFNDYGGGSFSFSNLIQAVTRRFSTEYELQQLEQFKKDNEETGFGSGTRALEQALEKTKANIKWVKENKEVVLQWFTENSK
# Chain of CD13/aminopeptidase N (P15144 whole entry): as above
# T2 sequence (P15144 whole entry): as above
molecule,measurement,setting,value
CC(C)C[C@H](NC(=O)[C@@H](O)[C@H](N)Cc1ccccc1)C(=O)O [bestatin],effect on metastasis,[1],marked suppression of experimental and spontaneous metastasis
same,effect on bFGF-induced angiogenesis in CAM,CD13 [2],suppress bFGF-induced angiogenesis
same,block of cell-surface CD13/aminopeptidase N enzymatic activity,CD13/aminopeptidase N,potently blocked
doxorubicin/CNGRC (not fully specified (bridges); cysteine pairing not given here; also: doxorubicin conjugate),toxicity compared with free doxorubicin,[3],less toxic than free doxorubicin
same,survival versus unconjugated peptide doxorubicin mixture,Hodgkin's lymphoma,lived longer
same,survival,[4]; [8],A marked effect on survival
same,tumor size versus doxorubicin control,[4]; [8],significantly smaller
same,survival versus doxorubicin alone,[4]; 5 μg/mouse/week or single dose 200 μg/mouse doxorubicin equivalent,lived longer
same,cures,"[4]; mouse, in vivo",Cures were also observed
same,effect on tumor growth,[4]; relative to vehicle alone,almost completely suppressed tumor growth
CNGRC,inhibition of accumulation of the two other NGR-displaying phage by co-injected soluble peptide,[5]; breast carcinoma xenografts,also inhibited the accumulation
same,inhibition of tumor homing of CNGRCVSGCAGRC (NGR) phage by co-injected soluble peptide,[5]; breast carcinoma xenografts,inhibited the accumulation
same,inhibition of tumor homing of RGD-4C phage by co-injected soluble peptide,[5]; increasing amounts of peptide,not inhibited
same,elution of CD13/APN from the CNGRC column by soluble peptide,CD13/APN,yielded fractions containing functional CD13/APN
same,inhibition of CNGRC phage binding to CD13 transfected cells by synthetic peptide,CD13 [6],blocked
same,inhibition of NGR-phage binding to CD13 by peptide,CD13 [7],Inhibition
